Results taken from patent US9132126B2, “Phenyl-isoxazole derivatives and preparation process thereof” (priority 2011, dated 2015).
Converted amounts (≈) assume the structure as drawn. Read-outs that look alike come from different tables or passages of the source.

Test system: Oseltamivir resistant strain virus
Test: microbe, parasite or virus in culture
Format: cell-based, influenza virus
[1] = unidentified influenza virus, read-out: EC50

Structure (SMILES) | SI value | antiviral activity effect on a virus strain resistant to Oseltamivir (tamiflu) (in words) | EC50 [1] [µg/mL] | antiviral activity effect on a virus strain resistant to Oseltamivir (tamiflu) | EC50 (Oseltamivir resistant strain) [µg/mL]
COc1cccc(N2CCN(C(=O)c3c(-c4ccccc4C(F)(F)F)noc3C)CC2)c1 [Example 3, (4-(3-methoxyphenyl)piperazine-1-yl)(5-methyl-3-(2-(trifluoromethyl)phenyl)isoxazol-4-yl)methanone] | 3276.59 to 9812.50 | high antiviral activity effect | 0.064 to 0.094 (≈ 0.144 to 0.211 µM) |  | 
COc1ccccc1N1CCN(C(=O)c2c(-c3ccccc3C(F)(F)F)noc2C)CC1 [Example 4] | 1.563 to 3.125 |  |  | high antiviral activity effect | 50 (≈ 112 µM)
COc1cccc(N2CCN(C(=O)c3c(-c4ccccc4Cl)noc3C)CC2)c1 [Example 9, (3-(2-chlorophenyl)-5-methylisoxazol-4-yl)(4-(3-methoxyphenyl)piperazine-1-yl)methanone] | 3221.649 to 13020.833 | high antiviral activity effect | 0.048 to 0.097 (≈ 0.117 to 0.236 µM) |  | 
Cc1onc(-c2cccc(F)c2)c1C(=O)N1CCN(c2ccc(Cl)c(Cl)c2)CC1 [Example 11, (4-(3,4-dichlorophenyl)piperazine-1-yl)(3-(3-fluorophenyl)-5-methylisoxazol-4-yl)methanone] | 1471.794 to 3205.128 | high antiviral activity effect | 0.195 (≈ 0.449 µM) |  | 
COc1cccc(N2CCN(C(=O)c3c(-c4cccc(F)c4)noc3C)CC2)c1 [Example 12, (3-(3-fluorophenyl)-5-methylisoxazol-4-yl)(4-(3-methoxyphenyl)piperazine-1-yl)methanone] | 50.016 to 100.032 | high antiviral activity effect | 1.56 (≈ 3.95 µM) |  | 
Cc1onc(-c2cccc(F)c2)c1C(=O)N1CCN(c2ccccc2O)CC1 [Example 16, (3-(3-fluorophenyl)-5-methylisoxazol-4-yl)(4-(2-hydroxyphenyl)piperazine-1-yl)methanone] | 100.032 to 200.321 | high antiviral activity effect | 0.39 to 0.781 (≈ 1.02 to 2.05 µM) |  | 
Cc1onc(-c2ccccc2OC(F)(F)F)c1C(=O)N1CCN(c2ccc(Cl)c(Cl)c2)CC1 [Example 35, (4-(3,4-dichlorophenyl)piperazine-1-yl)(5-methyl-3-(2-(trifluoromethoxy)phenyl)isoxazol-4-yl)methanone] | 1602.564 to 3205.128 | high antiviral activity effect | 0.195 (≈ 0.39 µM) |  | 
COc1cccc(N2CCN(C(=O)c3c(-c4ccccc4Cl)noc3N)CC2)c1 [Example 60, (5-amino-3-(2-chlorophenyl)isoxazol-4-yl)(4-(3-methoxyphenyl)piperazine-1-yl)methanone] |  | high antiviral activity effect | 0.053 to 0.094 (≈ 0.128 to 0.228 µM) |  | 
CCOC(=O)C1CCN(C(=O)c2c(-c3ccccc3OC(F)(F)F)noc2N)CC1 [Example 124] | 12.5 |  |  | high antiviral activity effect | 25 (≈ 58.5 µM)
CCOC(=O)C1=C[C@@H](OC(CC)CC)[C@H](NC(C)=O)[C@@H](N)C1 [Oseltamivir, reference compound] | 12.5 to 25 |  | 50 (≈ 160 µM) |  | 
